According to US12312347B2, “Azaindole derivative and use thereof as FGFR and C-Met inhibitor” (Wuxi Life Fountain Biotech Co., Ltd, priority 2018, dated 2025):
Where a name gives a salt, the structure may show the parent alone.

What was measured:
Type in all cases: biochemical
[1] = biological target: T1, human c-Met (Homo sapiens, UniProt P08581); experiment: 33P isotope-labeled kinase activity test, c-Met; conditions: ATP 10 μM
T1 construct: purchased Invitrogen PV3143
Method: (§1) The inhibitory activities of the tested compounds on human FGFR1, FGFR4, and c-Met were evaluated by the IC50 values measured using ^33P isotope-labeled kinase activity test (Reaction Biology Corp).
(§2) Buffer condition: 20 mM Hepes (pH 7.5), 10 mM MgCl2, 1 mM EGTA, 0.02% Brij35, 0.02 mg/mL BSA, 0.1 mM Na3VO4, 2 mM DTT, 1% DMSO.
(§3) Test procedure: The test compounds were dissolved in DMSO at room temperature and formulated to be 10 mM solutions for later use. The substrates were dissolved in freshly prepared buffer, and kinases to be tested were added and mixed well. The test compounds dissolved in DMSO were added to the above mixed reaction solutions by acoustic technique (Echo 550). The concentration of the compound in reaction solution was 1 μM, 0.25 μM, 0.156 μM, 3.91 nM, 0.977 nM, 0.244 nM, 0.061 nM, 0.0153 nM, 0.00381 nM or 10 μM, 2.50 μM, 0.62 μM, 0.156 μM, 39.1 nM, 9.8 nM, 2.4 nM, 0.61 nM, 0.15 nM, 0.038 nM. After incubation for 15 min, ^33P-ATP (activity 0.01 μCi/μL, corresponding concentrations are listed in Table 1) was added to start the reaction. Supplier item number, batch number, as well as the concentration information in the reaction solution of FGFR1, FGFR4, c-Met and substrates thereof are listed in Table 1. […] The kinase activity data are expressed by comparison between the kinase activity in the test compound group and the kinase activity in the blank group (containing DMSO only). IC50 values were obtained by curve fitting with Prism4 software (GraphPad).

[2] = biological target: T2, human FGFR4 (Homo sapiens, UniProt P22455); experiment: 33P isotope-labeled kinase activity test, FGFR4; conditions: ATP 100 μM
T2 construct: purchased Invitrogen P3054
Method: as §1, §2, §3

[3] = biological target: T3, human FGFR1 (Homo sapiens, UniProt P11362); experiment: 33P isotope-labeled kinase activity test, FGFR1; conditions: ATP 5 μM
T3 construct: purchased Invitrogen PV3146
Method: as §1, §2
as §3, with “The concentration of the compound in reaction solution was 1 μM, 0.25 μM, 0.156 μM, 3.91 nM, 0.977 nM, 0.244 nM, 0.061 nM, 0.0153 nM, 0.00381 nM or 10 μM, 2.50 μM, 0.62 μM, 0.156 μM, 39.1 nM, 9.8 nM, 2.4 nM, 0.61 nM, 0.15 nM, 0.038 nM.” left out

T2 sequence (P22455 22-802): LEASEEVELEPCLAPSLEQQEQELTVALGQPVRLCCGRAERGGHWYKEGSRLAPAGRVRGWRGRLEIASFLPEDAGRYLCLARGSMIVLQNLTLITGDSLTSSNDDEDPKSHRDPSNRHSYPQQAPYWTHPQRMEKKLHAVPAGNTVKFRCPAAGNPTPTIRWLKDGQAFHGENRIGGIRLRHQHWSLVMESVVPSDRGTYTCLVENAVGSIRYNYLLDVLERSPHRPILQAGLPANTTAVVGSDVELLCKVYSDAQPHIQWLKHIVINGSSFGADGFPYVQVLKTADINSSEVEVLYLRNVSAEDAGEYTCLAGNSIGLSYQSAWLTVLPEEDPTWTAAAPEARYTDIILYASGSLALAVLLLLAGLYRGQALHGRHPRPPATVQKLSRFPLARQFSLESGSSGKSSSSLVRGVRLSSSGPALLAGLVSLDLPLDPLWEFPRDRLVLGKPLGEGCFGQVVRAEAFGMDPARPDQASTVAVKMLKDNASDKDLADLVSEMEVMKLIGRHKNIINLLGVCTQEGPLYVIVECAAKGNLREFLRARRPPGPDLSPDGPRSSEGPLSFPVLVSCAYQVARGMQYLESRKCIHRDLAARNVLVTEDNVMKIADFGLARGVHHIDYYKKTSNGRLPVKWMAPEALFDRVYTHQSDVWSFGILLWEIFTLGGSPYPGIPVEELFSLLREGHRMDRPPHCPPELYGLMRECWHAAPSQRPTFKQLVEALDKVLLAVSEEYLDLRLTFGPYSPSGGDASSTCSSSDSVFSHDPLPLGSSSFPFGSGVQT
T1 sequence (P08581 25-1390): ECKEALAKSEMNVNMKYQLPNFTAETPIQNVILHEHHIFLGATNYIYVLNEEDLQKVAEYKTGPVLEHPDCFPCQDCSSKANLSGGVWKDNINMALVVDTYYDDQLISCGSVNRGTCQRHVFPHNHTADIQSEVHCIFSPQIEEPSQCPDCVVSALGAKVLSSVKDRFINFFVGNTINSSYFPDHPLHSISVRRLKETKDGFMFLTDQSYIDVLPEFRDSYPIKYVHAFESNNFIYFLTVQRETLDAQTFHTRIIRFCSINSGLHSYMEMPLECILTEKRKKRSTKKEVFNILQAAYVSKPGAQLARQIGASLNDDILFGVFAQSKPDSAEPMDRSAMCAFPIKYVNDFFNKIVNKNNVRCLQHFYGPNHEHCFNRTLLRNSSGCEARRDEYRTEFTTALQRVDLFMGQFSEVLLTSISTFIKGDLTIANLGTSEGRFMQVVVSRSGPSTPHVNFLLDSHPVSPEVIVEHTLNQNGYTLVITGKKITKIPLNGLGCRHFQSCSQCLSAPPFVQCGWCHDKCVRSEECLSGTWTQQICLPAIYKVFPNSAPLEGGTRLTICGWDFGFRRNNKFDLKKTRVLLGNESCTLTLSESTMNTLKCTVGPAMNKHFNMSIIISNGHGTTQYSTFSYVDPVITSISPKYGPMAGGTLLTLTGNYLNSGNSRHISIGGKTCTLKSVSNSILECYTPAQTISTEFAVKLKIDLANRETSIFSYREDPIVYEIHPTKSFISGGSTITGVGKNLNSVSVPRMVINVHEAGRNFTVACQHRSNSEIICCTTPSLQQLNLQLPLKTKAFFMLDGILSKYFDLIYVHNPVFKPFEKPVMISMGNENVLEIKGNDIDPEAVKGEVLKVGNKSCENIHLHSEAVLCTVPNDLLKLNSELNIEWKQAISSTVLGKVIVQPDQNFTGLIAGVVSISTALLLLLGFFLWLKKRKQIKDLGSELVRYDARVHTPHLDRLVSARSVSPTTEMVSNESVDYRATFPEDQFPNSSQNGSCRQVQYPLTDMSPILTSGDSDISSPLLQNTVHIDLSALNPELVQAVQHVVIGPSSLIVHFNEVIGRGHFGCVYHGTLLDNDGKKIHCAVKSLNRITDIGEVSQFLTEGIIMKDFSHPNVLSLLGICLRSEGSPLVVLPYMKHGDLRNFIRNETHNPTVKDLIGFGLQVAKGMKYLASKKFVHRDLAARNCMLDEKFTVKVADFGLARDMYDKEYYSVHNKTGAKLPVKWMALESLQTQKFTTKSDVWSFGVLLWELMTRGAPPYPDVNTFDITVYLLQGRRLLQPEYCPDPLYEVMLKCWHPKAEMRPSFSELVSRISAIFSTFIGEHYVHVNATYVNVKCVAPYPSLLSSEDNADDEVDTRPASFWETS
T3 sequence (P11362 22-822): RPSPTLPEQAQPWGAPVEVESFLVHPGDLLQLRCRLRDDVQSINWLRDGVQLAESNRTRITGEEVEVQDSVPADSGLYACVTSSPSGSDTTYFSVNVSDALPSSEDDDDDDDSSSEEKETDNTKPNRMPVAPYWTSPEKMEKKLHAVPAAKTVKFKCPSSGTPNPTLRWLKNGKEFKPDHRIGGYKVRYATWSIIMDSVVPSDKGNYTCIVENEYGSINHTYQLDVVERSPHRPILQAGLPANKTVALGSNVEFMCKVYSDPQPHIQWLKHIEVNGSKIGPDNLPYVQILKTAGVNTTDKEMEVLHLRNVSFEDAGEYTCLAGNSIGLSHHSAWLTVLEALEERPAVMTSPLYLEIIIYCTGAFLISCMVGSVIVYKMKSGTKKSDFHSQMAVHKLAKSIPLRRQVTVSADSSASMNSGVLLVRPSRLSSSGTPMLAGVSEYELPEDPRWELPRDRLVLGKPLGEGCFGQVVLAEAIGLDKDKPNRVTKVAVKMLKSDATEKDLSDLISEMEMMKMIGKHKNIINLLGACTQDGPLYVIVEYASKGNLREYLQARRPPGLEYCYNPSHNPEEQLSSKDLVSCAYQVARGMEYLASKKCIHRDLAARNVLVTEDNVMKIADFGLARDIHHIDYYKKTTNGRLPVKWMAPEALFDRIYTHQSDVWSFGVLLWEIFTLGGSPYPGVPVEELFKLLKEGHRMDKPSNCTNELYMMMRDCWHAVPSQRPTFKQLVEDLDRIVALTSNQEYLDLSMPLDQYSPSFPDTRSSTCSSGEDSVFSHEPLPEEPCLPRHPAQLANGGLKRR

Structure (SMILES) | IC50 [1] [nM] | IC50 [2] [nM] | IC50 [3] [nM]
COc1cc(OC)c(F)c(Cc2c[nH]c3ncc(-c4ccc(N5CCN(C)CC5)nc4)cc23)c1F [Trifluoroacetate salt of embodiment 62] | 132 | 8.6 | –
COc1cc(OC)c(F)c(Cc2c[nH]c3ncc(-c4cnn(CC5CNC5)c4)cc23)c1F [Trifluoroacetate salt of embodiment 29] | 35.6 | 24.6 | 1.9
CCN1CCC(n2cc(-c3cnc4[nH]cc(Cc5c(F)c(OC)cc(OC)c5F)c4c3)c(C#N)n2)CC1 [Hydrochloride of embodiment 42] | 7.1 | 10.2 | 1.4
COc1cc(OC)c(F)c(Cc2c[nH]c3ncc(-c4cnn(C5CN(C(C)=O)C5)c4)cc23)c1F [Trifluoroacetate salt of embodiment 26] | 13.8 | 35.3 | –
CC(c1c(Cl)ccc(F)c1Cl)c1c[nH]c2ncc(-c3cnn(CCO)c3)cc12 (stereo not drawn) [Comparative Compound 1b, reference compound] | 11.1 | 5090 | –
COc1cc(OC)c(F)c(Cc2c[nH]c3ncc(-c4cnn(CCN(C)C)c4)cc23)c1F [Hydrochloride of embodiment 28] | 25.9 | 20.2 | 0.55
COc1cc(OC)c(F)c(Cc2c[nH]c3ncc(-c4cnn(S(C)(=O)=O)c4)cc23)c1F [Trifluoroacetate salt of embodiment 30] | 169 | 28.2 | 2.1
COc1cc(OC)c(F)c(Cc2c[nH]c3ncc(-c4cnn(CCCNC(C)C)c4)cc23)c1F [Hydrochloride of embodiment 72] | 70.8 | 53.1 | –
COc1nc(OC)c(F)c(Cc2c[nH]c3ncc(-c4cnn(CCS(C)(=O)=O)c4)cc23)c1F [Trifluoroacetate salt of embodiment 77] | – | 3.41 | –
COc1cc(OC)c(F)c(Cc2n[nH]c3ncc(-c4cnn(C5CCNCC5)c4)cc23)c1F [Hydrochloride of embodiment 2] | 7.8 | 137 | –
COc1cc(OC)c(F)c(Cc2c[nH]c3ncc(-c4cn(C5CCN(C)CC5)nc4C)cc23)c1F [Trifluoroacetate salt of embodiment 35] | 14 | 23.5 | –
COc1cc(OC)c(F)c(Cc2c[nH]c3ncc(-c4cnn(C5CNC5)c4)cc23)c1F [Trifluoroacetate salt of embodiment 24] | 76.5 | 252 | –
COc1cc(OC)c(Cl)c(Cc2c[nH]c3ncc(-c4cnn(C5CCNCC5)c4)cc23)c1Cl [Trifluoroacetate salt of embodiment 49] | 8.8 | 529 | –
CCN1CCC(n2cc(-c3cnc4[nH]cc(Cc5c(F)c(OC)cc(OC)c5F)c4c3)cn2)CC1 [Trifluoroacetate salt of embodiment 12] | 3.17 | 36 | –
CC(c1c(Cl)ccc(F)c1Cl)c1c[nH]c2ncc(-c3cnn(CCO)c3)cc12 (single isomer, unassigned) [Comparative Compound 1a, reference compound] | 758 | > 10000 | –
COc1cc(OC)c(F)c(Cc2c[nH]c3ncc(-c4cnn(C5CCOCC5)c4)cc23)c1F [Trifluoroacetate salt of embodiment 22] | 23.8 | 29.2 | –
CCN1CCC(c2cncc(-c3cnc4[nH]cc(Cc5c(F)c(OC)cc(OC)c5F)c4c3)n2)CC1 [Hydrochloride of embodiment 65] | 135 | 2.7 | –
CCN1CCC(n2ccc(-c3cnc4[nH]cc(Cc5c(F)c(OC)nc(OC)c5F)c4c3)n2)CC1 [Embodiment 75] | 3.26 | 10.6 | –

Now from value to compound:

IC50 [1] [nM] | IC50 [2] [nM] | IC50 [3] [nM] | Structure (SMILES)
9.1 | 599 | – | CCN1CCC(n2cc(-c3cnc4[nH]cc(Cc5c(F)ccc(OC)c5F)c4c3)cn2)CC1 [Embodiment 38]
107 | 2.9 | 0.32 | CCN1CCc2ncc(-c3cnc4[nH]cc(Cc5c(F)c(OC)cc(OC)c5F)c4c3)cc2C1 [Trifluoroacetate salt of embodiment 53]
8.7 | 1710 | – | COc1ccc(Cl)c(Cc2c[nH]c3ncc(-c4cnn(C5CCNCC5)c4)cc23)c1Cl [Trifluoroacetate salt of embodiment 10]
136 | 4.4 | 0.12 | COc1cc(OC)c(F)c(Cc2c[nH]c3ncc(-c4cnc5c(c4)CNC5)cc23)c1F [Trifluoroacetate salt of embodiment 50]
6.2 | 13.5 | – | COc1cc(OC)c(F)c(Cc2c[nH]c3ncc(-c4cn(C5CCNCC5)nc4C)cc23)c1F [Embodiment 32]
33 | 52.4 | – | CCN1CCC(n2cc(-c3cnc4[nH]cc(Cc5c(F)c(OC)cc(OC)c5F)c4c3)c(C)n2)CC1 [Hydrochloride of embodiment 37]
76.1 | 148 | – | CCN1CCC(n2cc(-c3cnc4[nH]nc(Cc5c(F)c(OC)cc(OC)c5F)c4c3)cn2)CC1 [Hydrochloride of embodiment 3]
141 | 9.8 | – | COc1cc(OC)c(F)c(Cc2c[nH]c3ncc(-c4ccnc(N5CCN(C)CC5)c4)cc23)c1F [Embodiment 78]
27.3 | 684 | – | COc1ccc(F)c(Cc2c[nH]c3ncc(-c4cn(C5CCNCC5)nc4C)cc23)c1F [Hydrochloride of embodiment 36]
57.1 | 61.7 | – | COc1cc(OC)c(F)c(Cc2c[nH]c3ncc(-c4cn(C5CCN(C)CC5)nc4C#N)cc23)c1F [Hydrochloride of embodiment 43]
6.7 | 13.1 | – | COc1cc(OC)c(F)c(Cc2c[nH]c3ncc(-c4cnn(C5CN(CCO)C5)c4)cc23)c1F [Trifluoroacetate salt of embodiment 27]
– | 3.87 | – | COc1cc(OC)c(F)c(Cc2c[nH]c3ncc(-c4cnn(CCS(C)(=O)=O)c4)cc23)c1F [Trifluoroacetate salt of embodiment 76]
4.2 | 56.4 | – | CCN1CCC(n2cc(-c3cnc4[nH]c(C)c(Cc5c(F)c(OC)cc(OC)c5F)c4c3)cn2)CC1 [Hydrochloride of embodiment 74]
9.1 | 351 | – | CCN1CCC(n2cc(-c3cnc4[nH]cc(Cc5c(F)ccc(OC)c5F)c4c3)c(C#N)n2)CC1 [Embodiment 45]
16.1 | 29.7 | – | COc1cc(OC)c(F)c(Cc2c[nH]c3ncc(-c4cnn(C5CCN(S(C)(=O)=O)CC5)c4)cc23)c1F [Trifluoroacetate salt of embodiment 18]
177 | 799 | – | CCN1CCC(n2cc(-c3cnc4[nH]nc(Cc5c(F)ccc(OC)c5F)c4c3)cn2)CC1 [Hydrochloride of embodiment 4]
53.5 | 10 | – | COc1cc(OC)c(F)c(Cc2c[nH]c3ncc(-c4cnn(CCNC(C)C)c4)cc23)c1F [Hydrochloride of embodiment 68]
1290 | 39.7 | – | COc1cc(OC)c(F)c(Cc2n[nH]c3ncc(-c4cnn(CCO)c4)cc23)c1F [Trifluoroacetate salt of embodiment 1]
12 | 158 | – | CNC(=O)c1cc(Cc2c[nH]c3ncc(-c4cnn(C5CCNCC5)c4)cc23)c(Cl)c(OC)c1 [Trifluoroacetate salt of embodiment 20]
– | 550 | 17.1 | COc1cc(Cc2c[nH]c3ncc(-c4cnn(C5CCNCC5)c4)cc23)cc(OC)c1 [Trifluoroacetate salt of embodiment 11]
47.2 | 20.3 | – | COc1cc(OC)c(F)c(Cc2c[nH]c3ncc(-c4cnn(C5CCNCC5)c4)nc23)c1F [Trifluoroacetate salt of embodiment 5]
191 | 32.3 | – | COc1cc(OC)c(F)c(Cc2c[nH]c3ncc(-c4cn(C)nc4C#N)cc23)c1F [Trifluoroacetate salt of embodiment 44]
11.6 | 7.5 | – | COc1cc(OC)c(F)c(Cc2c[nH]c3ncc(-c4cnn(C5CCN(C(C)=O)CC5)c4)cc23)c1F [Trifluoroacetate salt of embodiment 17]
– | – | 9.41 | COc1cc(OC)c(F)c(Cc2c[nH]c3ncc(-c4cncc(C5=CCNCC5)n4)cc23)c1F [Hydrochloride of embodiment 63]
